This assay addresses Recombinant Human Poly(ADP-Ribose) Polymerase (PARP), PARP-1 (Homo sapiens (Human), UniProt P09874). The following applies: read-out: PARP-1 (Ki); Table 1; text calls the values EC50s.

Ki data for 25 molecules are collected here from patent publication US9283222B2 (priority 2006, dated 2016).

What is called Ki is the equilibrium dissociation constant of an inhibitor or competing ligand from its target.

Chain of Recombinant Human Poly(ADP-Ribose) Polymerase (PARP), PARP-1 (P09874 whole entry): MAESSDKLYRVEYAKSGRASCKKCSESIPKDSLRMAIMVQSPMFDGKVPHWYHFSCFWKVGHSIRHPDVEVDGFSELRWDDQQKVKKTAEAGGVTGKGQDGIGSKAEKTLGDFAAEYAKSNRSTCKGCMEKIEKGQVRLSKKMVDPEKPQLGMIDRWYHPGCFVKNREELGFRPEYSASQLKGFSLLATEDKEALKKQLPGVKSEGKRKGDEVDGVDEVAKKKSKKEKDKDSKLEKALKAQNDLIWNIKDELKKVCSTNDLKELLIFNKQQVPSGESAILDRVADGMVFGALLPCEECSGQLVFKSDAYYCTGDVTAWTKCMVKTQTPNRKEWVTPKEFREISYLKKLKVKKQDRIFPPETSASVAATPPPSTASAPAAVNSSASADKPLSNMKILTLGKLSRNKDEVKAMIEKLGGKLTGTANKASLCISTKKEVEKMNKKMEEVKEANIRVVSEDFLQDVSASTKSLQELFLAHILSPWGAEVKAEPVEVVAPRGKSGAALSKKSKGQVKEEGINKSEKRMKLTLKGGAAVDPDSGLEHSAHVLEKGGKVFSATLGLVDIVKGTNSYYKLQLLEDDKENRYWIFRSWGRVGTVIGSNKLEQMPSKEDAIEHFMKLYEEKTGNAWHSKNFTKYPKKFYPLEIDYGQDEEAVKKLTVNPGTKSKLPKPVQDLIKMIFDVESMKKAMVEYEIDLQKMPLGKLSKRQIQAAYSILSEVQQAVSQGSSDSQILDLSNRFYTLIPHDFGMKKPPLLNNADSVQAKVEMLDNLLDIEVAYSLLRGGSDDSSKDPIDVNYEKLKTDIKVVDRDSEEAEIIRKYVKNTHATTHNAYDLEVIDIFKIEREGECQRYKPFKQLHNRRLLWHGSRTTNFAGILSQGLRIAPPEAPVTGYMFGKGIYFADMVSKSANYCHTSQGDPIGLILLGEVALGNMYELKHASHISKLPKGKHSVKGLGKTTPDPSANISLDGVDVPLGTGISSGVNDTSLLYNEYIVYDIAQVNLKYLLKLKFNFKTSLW

For `CN(CCc1ccccn1)C(=O)c1cccc(Cc2n[nH]c(=O)c3c2CCCC3)c1` [Example 426, N-methyl-3-((4-oxo-3,4,5,6,7,8-hexahydrophthalazin-1-yl)methyl)-N-(2-pyridin-2-ylethyl)benzamide], the Ki came out at 0.014 µM. As to `O=C(NC1CCN(C(=O)c2ccco2)CC1)c1cc(Cc2n[nH]c(=O)c3c2NCCC3)ccc1F` [Example 726, 2-fluoro-N-[1-(2-furoyl)piperidin-4-yl]-5-[(5-oxo-1,2,3,4,5,6-hexahydropyrido[2,3-d]pyridazin-8-yl)methyl]benzamide], the Ki stood at 0.004 µM. Consider `O=C(Nc1cccc(Cc2n[nH]c(=O)c3c2CCCC3)c1)c1ccco1` [Example 193, N-(3-((4-oxo-3,4,5,6,7,8-hexahydrophthalazin-1-yl)methyl)phenyl)-2-furamide], for which the Ki turned out to be 0.1 µM. Turning to `O=C(Nc1cccc(Cc2n[nH]c(=O)c3c2CCCC3)c1)c1ccccc1C(=O)c1ccccc1` [Example 241, 2-benzoyl-N-(3-((4-oxo-3,4,5,6,7,8-hexahydrophthalazin-1-yl)methyl)phenyl)benzamide], the Ki came to 1.45 µM.

For the molecule `CN(C(=O)c1cc(Cc2n[nH]c(=O)c3c2NCCC3)ccc1F)C1CCN(C(=O)c2cscn2)CC1` [Example 717, 2-fluoro-N-methyl-5-[(5-oxo-1,2,3,4,5,6-hexahydropyrido[2,3-d]pyridazin-8-yl)methyl]-N-[1-(1,3-thiazol-4-ylcarbonyl)piperidin-4-yl]benzamide], the Ki turned out to be 0.004 µM. For the molecule `Cc1ccc(OCC(=O)Nc2cccc(Cc3n[nH]c(=O)c4c3CCCC4)c2)cc1` [Example 150, 2-(4-methylphenoxy)-N-(3-((4-oxo-3,4,5,6,7,8-hexahydrophthalazin-1-yl)methyl)phenyl)acetamide], the Ki came out at 0.016 µM. As to `CN1CCCN(C(=O)c2cc(Cc3n[nH]c(=O)c4c3NCCC4)ccc2F)CC1` [Example 509, 8-{4-fluoro-3-[(4-methyl-1,4-diazepan-1-yl)carbonyl]benzyl}-2,3,4,6-tetrahydropyrido[2,3-d]pyridazin-5(1H)-one], the Ki was determined as 0.003 µM. In the case of `O=C(c1ccncc1)N1CCCN(C(=O)c2cc(Cc3n[nH]c(=O)c4c3NCCC4)ccc2F)CC1` [Example 682, 8-{4-fluoro-3-[(4-isonicotinoyl-1,4-diazepan-1-yl)carbonyl]benzyl}-2,3,4,6-tetrahydropyrido[2,3-d]pyridazin-5(1H)-one], the Ki stood at 0.0024 µM. Regarding `O=C(c1cccc(Cc2n[nH]c(=O)c3c2CCCC3)c1)N1CCN(CCO)CC1` [Example 439, 4-(3-((4-(2-hydroxyethyl)piperazin-1-yl)carbonyl)benzyl)-5,6,7,8-tetrahydrophthalazin-1(2H)-one], the Ki turned out to be 0.008 µM. `CCCCOc1ccc(C(=O)Nc2cccc(Cc3n[nH]c(=O)c4c3CCCC4)c2)cc1` [Example 190, 4-butoxy-N-(3-((4-oxo-3,4,5,6,7,8-hexahydrophthalazin-1-yl)methyl)phenyl)benzamide]: the Ki worked out at 0.263 µM.

Take `O=C(Nc1ccc2c(c1)OCCO2)c1cccc(Cc2n[nH]c(=O)c3c2CCCC3)c1` [Example 358, N-2,3-dihydro-1,4-benzodioxin-6-yl-3-((4-oxo-3,4,5,6,7,8-hexahydrophthalazin-1-yl)methyl)benzamide]: the Ki was 0.066 µM.

In the case of `COc1ccc(Nc2ccc(NC(=O)c3cccc(Cc4n[nH]c(=O)c5c4CCCC5)c3)cc2)cc1` [Example 365, N-(4-((4-methoxyphenyl)amino)phenyl)-3-((4-oxo-3,4,5,6,7,8-hexahydrophthalazin-1-yl)methyl)benzamide], the Ki amounted to 0.12 µM. As for `CC(C)(C)OC(=O)NC1CCN(C(=O)c2cc(Cc3n[nH]c(=O)c4c3NCCC4)ccc2F)CC1` [Example 700, tert-butyl 1-{2-fluoro-5-[(5-oxo-1,2,3,4,5,6-hexahydropyrido[2,3-d]pyridazin-8-yl)methyl]benzoyl}piperidin-4-ylcarbamate], the Ki came to 0.0028 µM. For `COc1cc(C(=O)Nc2cccc(Cc3n[nH]c(=O)c4c3CCCC4)c2)ccc1C` [Example 227, 3-methoxy-4-methyl-N-(3-((4-oxo-3,4,5,6,7,8-hexahydrophthalazin-1-yl)methyl)phenyl)benzamide] the value was 0.06 µM. In the case of `O=C(c1cc(Cc2n[nH]c(=O)c3c2NCCC3)ccc1F)N1CCN(C(=O)N2CCCCC2)CC1` [Example 526, 8-(4-fluoro-3-{[4-(piperidin-1-ylcarbonyl)piperazin-1-yl]carbonyl}benzyl)-2,3,4,6-tetrahydropyrido[2,3-d]pyridazin-5(1H)-one], the Ki is 0.004 µM. As for `O=C(c1cccc(Cc2n[nH]c(=O)c3c2CCCC3)c1)N1CCC(O)CC1` [Example 428, 4-(3-((4-hydroxypiperidin-1-yl)carbonyl)benzyl)-5,6,7,8-tetrahydrophthalazin-1(2H)-one], the figure is 0.005 µM; as for `O=C(c1cccc(Cc2n[nH]c(=O)c3c2CCCC3)c1)N1CCN(c2ccccc2Cl)CC1` [Example 446, 4-(3-((4-(2-chlorophenyl)piperazin-1-yl)carbonyl)benzyl)-5,6,7,8-tetrahydrophthalazin-1(2H)-one], 0.01 µM. `O=C(Nc1cccc(Cc2n[nH]c(=O)c3c2CCCC3)n1)c1ccccc1` [Example 126, N-(6-((4-oxo-3,4,5,6,7,8-hexahydrophthalazin-1-yl)methyl)pyridin-2-yl)benzamide]: the Ki was determined as 0.286 µM.

With `O=C(c1cc(Cc2n[nH]c(=O)c3c2CCCC3)ccc1F)N1CCN(C(=O)N2CCCC2)CC1` [Example 576, 4-(4-fluoro-3-{[4-(pyrrolidine-1-ylcarbonyl)piperazin-1-yl]carbonyl}benzyl)-5,6,7,8-tetrahydrophthalazin-1(2H)-one], the Ki was 0.0009 µM. Turning to `Nc1cccc(Cc2n[nH]c(=O)c3c2CCCC3)c1` [Example 89, 4-(3-aminobenzyl)-5,6,7,8-tetrahydrophthalazin-1(2H)-one], the Ki was 0.111 µM. For `O=C(NCCc1cccc(F)c1)c1cccc(Cc2n[nH]c(=O)c3c2CCCC3)c1` [Example 386, N-(2-(3-fluorophenyl)ethyl)-3-((4-oxo-3,4,5,6,7,8-hexahydrophthalazin-1-yl)methyl)benzamide], the Ki worked out at 0.033 µM. As for `O=C(Nc1cccc(Cc2n[nH]c(=O)c3c2CCCC3)c1)c1ccc(O)nc1` [Example 214, 6-hydroxy-N-(3-((4-oxo-3,4,5,6,7,8-hexahydrophthalazin-1-yl)methyl)phenyl)nicotinamide], the figure is 0.007 µM; as for `CC(C)N1CCN(C(=O)c2cc(Cc3n[nH]c(=O)c4c3CCCC4)ccc2F)CC1` [Example 531, 4-{4-fluoro-3-[(4-isopropylpiperazin-1-yl)carbonyl]benzyl}-5,6,7,8-tetrahydrophthalazin-1(2H)-one], 0.002 µM; as for `CCN1CCN(C(=O)c2cccc(Cc3n[nH]c(=O)c4c3CCCC4)c2)CC1` [Example 436, 4-(3-((4-ethylpiperazin-1-yl)carbonyl)benzyl)-5,6,7,8-tetrahydrophthalazin-1(2H)-one], 0.01 µM. Consider `CN(C(=O)c1cc(Cc2n[nH]c(=O)c3c2NCCC3)ccc1F)C1CCN(C(=O)OC(C)(C)C)CC1` [Example 698, tert-butyl 4-[{2-fluoro-5-[(5-oxo-1,2,3,4,5,6-hexahydropyrido[2,3-d]pyridazin-8-yl)methyl]benzoyl}(methyl)amino]piperidine-1-carboxylate], for which the Ki came to 0.011 µM.
